# Assay results from article PMC8424217 (The Journal of Biological Chemistry, 2021).
# Peptide text beside a SMILES is read from it. * marks the point of attachment. Palmitoyl = CCCCCCCCCCCCCCCC(=O)*
# Legend:
# rat thoracic aorta rings = molecular target: T1, rat thoracic aorta rings (Rattus norvegicus, UniProt P49684); assay: Modulation of URP-mediated rat aortic ring contraction; details: pepducin 10^−6 M 30 min prior to URP, percentage of KCl (40 mM) contraction divided by tissue response to URP (10^−6 M), mean ± SEM, n = 5, read-out: URP Emax after pepducin pretreatment
# T1 sequence (P49684 1-386): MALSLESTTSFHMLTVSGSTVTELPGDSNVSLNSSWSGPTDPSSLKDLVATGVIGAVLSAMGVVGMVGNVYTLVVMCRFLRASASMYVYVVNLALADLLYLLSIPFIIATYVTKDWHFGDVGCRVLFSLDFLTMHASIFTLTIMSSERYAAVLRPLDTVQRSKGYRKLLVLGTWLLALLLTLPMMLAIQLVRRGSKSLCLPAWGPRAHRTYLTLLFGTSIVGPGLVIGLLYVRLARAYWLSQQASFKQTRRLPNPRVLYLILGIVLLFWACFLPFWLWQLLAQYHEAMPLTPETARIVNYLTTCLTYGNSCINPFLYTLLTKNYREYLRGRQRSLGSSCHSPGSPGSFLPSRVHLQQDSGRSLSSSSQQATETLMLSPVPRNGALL
# Procedure: Each replicate (n) was conducted on tissue obtained from at least three different animals. Data represent mean ± SEM.
# Adult male Sprague-Dawley rats (Charles-River) weighing 250–300 g were housed in cages under controlled illumination (12:12 h light–dark cycle), humidity, and temperature (21–23 °C) and had free access to tap water and rat chow. All experimental procedures were performed in accordance with regulations and ethical guidelines from the Canadian Council for the Care of Laboratory Animals and received approvals of the institutional animal care and use committee of the Institut National de la Recherche Scientifique—Centre Armand-Frappier Santé Biotechnologie. As previously described ([17], [18]), the thoracic aorta was cleared of surrounding tissue and then excised from the aortic arch to the diaphragm. Conjunctive tissues were next removed from the thoracic aorta and the vessels were divided into five rings of 4 mm. The endothelium of each aortic ring was removed by gently rubbing the vessel intimal surface. Aortic rings were then placed in a 5 ml organ bath filled with oxygenated normal Krebs–Henseleit buffer. Eighty microliters of a 2.5 M potassium chloride solution (40 mM final concentration) was used to evaluate maximal contractile responses of each vessel. […] Cumulative concentration–response curves to synthetic peptides were obtained by increasing the concentration of each peptide in the remaining organ chambers (10^−11–10^−5 M).
# hUT = molecular target: T2, hUT (Homo sapiens, UniProt Q9UKP6); assay: Antagonism of hUII- or URP-mediated G12 activation, BRET, HEK 293-hUT cells; format: cell-based; set-up: expressed in transfected cells; details: pepducin 10^−5 M for 15 min, then hUII or URP, at least three experiments in triplicate
# T2 sequence (Q9UKP6 1-389): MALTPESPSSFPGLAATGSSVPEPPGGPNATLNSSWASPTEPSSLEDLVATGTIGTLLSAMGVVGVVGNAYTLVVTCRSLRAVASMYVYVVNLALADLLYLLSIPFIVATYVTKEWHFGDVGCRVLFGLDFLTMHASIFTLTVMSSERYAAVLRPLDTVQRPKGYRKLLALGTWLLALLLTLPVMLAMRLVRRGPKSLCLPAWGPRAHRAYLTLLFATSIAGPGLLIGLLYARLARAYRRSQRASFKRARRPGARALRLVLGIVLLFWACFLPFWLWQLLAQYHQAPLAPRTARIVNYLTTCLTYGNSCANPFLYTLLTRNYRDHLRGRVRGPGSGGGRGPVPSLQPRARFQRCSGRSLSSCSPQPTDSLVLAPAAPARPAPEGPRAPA
# Procedure: Figure 10 Effect of hUT-pepducins on hUT-mediated G12activation. […] Each curve represents mean ± SEM of at least three independent concentration–response experiments performed in triplicate.
# HEK 293-hUT cells were grown in DMEM culture media supplemented with 10% foetal bovine serum, HEPES, sodium pyruvate, and G418 (200 μg mL^−1). Passages were performed when cells reached 80% of confluency. Cells were initially plated in 96-well plates at a density of 10,000 cells/well. […] Then, to evaluate Gq and G12 activation, 10 μl of a 1/20 dilution (diluted before use) of coelenterazine 400A (stock at 1 mM in ethanol) in Kreb's buffer and 10 μl of the 10× appropriate concentration of peptide were added, and the luminescence was evaluated with an Infinite M1000 PRO. […] Readings were performed after 5 min using an Infinite M1000 PRO. […] BRET ratio was determined by calculating the ratio of the light emitted by GFP10 over the light emitted by the RlucII.
# HEK 293 cells = tested on: HEK 293 cells
# Procedure: Pepducins are composed of a synthetic peptide, mimicking an intracellular GPCR loop, to which a hydrophobic moiety, most commonly the fully saturated C16 fatty acid palmitate, is conjugated at their N-termini ([39]). […] The second pepducin ([Trp^1, Leu^2]hUT-Pep3) comprises the hUT ICL3 sequence; however, the first two N-terminal amino acids were replaced by the corresponding residues from rat UT ICL3 (-Arg-Arg-in hUT and -Trp-Leu- in rUT).
# Toxicity of hUT-derived pepducins was evaluated using (A) MTT or (B) LDH assays in HEK 293-hUT cells.
# HEK 293 cells were seeded at a density of 2 × 10^4 cells/well in 96 well-plates and cultured at 37 °C for 24 h. Cells were then incubated in serum-free media with hUT-derived pepducins at various concentrations (10^−8 M–10^−4 M). Viability was assessed with an MTS kit (CellTiter 96 AQueous, Promega) and a microplate reader (MTX^TC Revelation, Dynex Tech) in order to determine the optical density related to the conversion of MTS into purple-colored water-soluble formazan. Positive control (cells treated with 10% DMSO) and negative control (nontreated cells) were included in each experiment. Results were expressed as the percentage of control (nontreated cells). The presence of lactate dehydrogenase (LDH), released in the culture medium from dead cells, was also determined using a commercial LDH kit (BioVision). Positive control (cells treated with lysis buffer) and negative control (nontreated cells) were included in each experiment. Results were expressed as the percentage of the maximum LDH release following cell lysis.
Compound,Emax (rat thoracic aorta rings),hUII- and URP-mediated G12 activation after pepducin pretreatment (hUT),effect on cell viability at 10^−4 M (HEK 293 cells),effect on cell viability up to 10^−5 M (HEK 293 cells)
"CCCCCCCCCCCCCCCC(=O)N[C@@H](Cc1c[nH]c2ccccc12)C(=O)N[C@@H](CC(C)C)C(=O)N[C@@H](CO)C(=O)N[C@@H](CCC(N)=O)C(=O)N[C@@H](CCCNC(=N)N)C(=O)N[C@@H](C)C(=O)N[C@@H](CO)C(=O)N[C@@H](Cc1ccccc1)C(=O)N[C@@H](CCCCN)C(=O)N[C@@H](CCCNC(=N)N)C(=O)N[C@@H](C)C(=O)N[C@@H](CCCNC(=N)N)C(=O)N[C@@H](CCCNC(=N)N)C(N)=O [[Trp^1, Leu^2]hUT-Pep3] (Palmitoyl-WLSQRASFKRARR-NH2)",16 ± 2%,completely abolished hUII- and URP-associated G12 stimulation,as cytotoxic as unmodified hUT-Pep3 at 10^−7 M,did not significantly affect HEK 293 cell viability
CCCCCCCCCCCCCCCC(=O)N[C@@H](CCCNC(=N)N)C(=O)N1CCC[C@H]1C(=O)N[C@@H](CC(C)C)C(=O)N[C@@H](CC(=O)O)C(=O)N[C@H](C(=O)N[C@H](C(=O)N[C@@H](CCC(N)=O)C(=O)N[C@@H](CCCNC(=N)N)C(=O)N1CCC[C@H]1C(=O)N[C@@H](CCCCN)C(=O)NCC(=O)N[C@@H](Cc1ccc(O)cc1)C(N)=O)C(C)C)[C@@H](C)O [hUT-Pep2] (Palmitoyl-RPLDTVQRPKGY-NH2),76 ± 8%,completely abolished hUII- and URP-associated G12 stimulation,as cytotoxic as unmodified hUT-Pep3 at 10^−7 M,did not significantly affect HEK 293 cell viability
